Measurements: ChEMBL document CHEMBL1817594, “Multi-target strategy to address Alzheimer's disease: design, synthesis and biological evaluation of new tacrine-based dimers” (Eur J Med Chem, 2011)

Tests used:
[1] = target: T1, Acetylcholinesterase (Homo sapiens, UniProt P22303)
Description: Inhibition of human serum recombinant AChE using acetylthiocholine iodide as substrate preincubated for 20 mins by Ellman's method

[2] = target: T2, Beta-secretase 1 (Homo sapiens, UniProt P56817); test: Inhibition of BACE1 expressed in baculovirus assessed as inhibition of amyloid beta-42 production at 10 uM after 60 mins by spectrofluorometric assay
T2 sequence (P56817 whole entry): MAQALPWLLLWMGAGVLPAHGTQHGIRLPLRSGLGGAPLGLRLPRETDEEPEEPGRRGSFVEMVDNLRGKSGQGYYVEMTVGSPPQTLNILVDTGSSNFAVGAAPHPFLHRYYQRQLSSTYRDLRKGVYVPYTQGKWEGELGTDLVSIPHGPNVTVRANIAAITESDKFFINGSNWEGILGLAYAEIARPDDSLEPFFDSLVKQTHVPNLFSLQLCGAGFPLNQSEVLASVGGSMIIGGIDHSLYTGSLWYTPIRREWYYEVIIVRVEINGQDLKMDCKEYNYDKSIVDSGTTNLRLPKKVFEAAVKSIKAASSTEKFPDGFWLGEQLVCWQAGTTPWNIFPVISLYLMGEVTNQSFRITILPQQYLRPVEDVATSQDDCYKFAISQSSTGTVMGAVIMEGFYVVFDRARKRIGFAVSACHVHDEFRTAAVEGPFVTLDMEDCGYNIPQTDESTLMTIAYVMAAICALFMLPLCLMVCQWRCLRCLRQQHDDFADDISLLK

[3] = target: Cholinesterase (Homo sapiens, UniProt P06276)
Chain of Cholinesterase (P06276 whole entry): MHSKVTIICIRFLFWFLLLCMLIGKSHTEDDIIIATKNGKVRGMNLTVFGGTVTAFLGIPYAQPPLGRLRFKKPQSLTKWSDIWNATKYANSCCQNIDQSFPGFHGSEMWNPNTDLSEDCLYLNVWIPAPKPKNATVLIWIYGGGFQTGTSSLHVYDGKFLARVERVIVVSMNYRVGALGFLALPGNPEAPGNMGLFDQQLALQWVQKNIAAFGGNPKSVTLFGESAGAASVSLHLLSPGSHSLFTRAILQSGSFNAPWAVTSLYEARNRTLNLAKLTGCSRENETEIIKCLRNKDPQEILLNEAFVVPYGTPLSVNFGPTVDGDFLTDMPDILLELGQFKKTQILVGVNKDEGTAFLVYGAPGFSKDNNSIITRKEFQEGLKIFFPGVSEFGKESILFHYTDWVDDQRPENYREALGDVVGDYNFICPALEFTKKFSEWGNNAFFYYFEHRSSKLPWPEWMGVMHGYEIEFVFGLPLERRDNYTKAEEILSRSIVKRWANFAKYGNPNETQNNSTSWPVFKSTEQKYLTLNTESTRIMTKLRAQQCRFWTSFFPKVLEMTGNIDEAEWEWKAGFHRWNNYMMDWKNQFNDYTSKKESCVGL
Description: Inhibition of human serum recombinant BChE using butyrylthiocholine iodide as substrate preincubated for 20 mins by Ellman's method

[4] = target: T2, Beta-secretase 1
Description: Inhibition of BACE1 expressed in baculovirus assessed as inhibition of amyloid beta-42 production after 60 mins by spectrofluorometric assay

[5] = target: T1, Acetylcholinesterase; test: Mixed-type inhibition of human AChE assessed as hydrolysis of acetylthiocholine by Lineweaver-Burk plot analysis

T1 sequence (P22303 whole entry): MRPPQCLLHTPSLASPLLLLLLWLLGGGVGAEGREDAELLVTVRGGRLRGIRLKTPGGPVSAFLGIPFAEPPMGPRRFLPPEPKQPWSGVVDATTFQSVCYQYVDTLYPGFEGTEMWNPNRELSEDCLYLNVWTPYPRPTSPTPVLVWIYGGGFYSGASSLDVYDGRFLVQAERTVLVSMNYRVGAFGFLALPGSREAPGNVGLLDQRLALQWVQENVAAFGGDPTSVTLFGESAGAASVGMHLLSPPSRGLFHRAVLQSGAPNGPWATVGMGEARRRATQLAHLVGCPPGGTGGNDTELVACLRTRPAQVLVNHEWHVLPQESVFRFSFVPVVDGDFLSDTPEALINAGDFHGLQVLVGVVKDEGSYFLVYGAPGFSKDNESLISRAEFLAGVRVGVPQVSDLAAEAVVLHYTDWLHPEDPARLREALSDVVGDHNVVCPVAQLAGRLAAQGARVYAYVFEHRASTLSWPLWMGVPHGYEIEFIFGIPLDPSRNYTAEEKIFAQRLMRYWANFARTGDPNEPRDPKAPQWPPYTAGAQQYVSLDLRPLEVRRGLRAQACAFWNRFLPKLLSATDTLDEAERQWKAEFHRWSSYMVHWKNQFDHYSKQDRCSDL

Row | SMILES | IC50 [1] | inhibition [2] | IC50 [3] | IC50 [4] | Ki [5]
1 | c1ccc2c(c1)Cc1c-2nc2ccccc2c1NCCCCCCCNc1c2c(nc3ccccc13)CCCC2 | 13.9 nM | 27% | 24.8 nM |  | 
2 | c1ccc2c(c1)Cc1c-2nc2ccccc2c1NCCCCCCCNc1c2c(nc3ccccc13)-c1ccccc1C2 | 455 nM | 27% | 28.6 nM | 400 nM | 
3 | Clc1ccc2c(NCCCCCCCOc3cccc(-c4cc5ccccc5o4)c3)c3c(nc2c1)CCCC3 | 258 nM |  | 41.4 nM |  | 
4 | c1ccc2c(NCCCCCCCCCN3CCOCC3)c3c(nc2c1)CCCC3 | 34 nM |  | 38.1 nM |  | 
5 | Clc1ccc2c(NCCCCCCCNc3c4c(nc5cc(Cl)ccc35)-c3ccccc3C4)c3c(nc2c1)CCCC3 | 12.1 nM |  | 1660 nM |  | 
6 | O=c1c2ccc(OCCCCCCCNc3c4c(nc5ccccc35)CCCC4)cc2oc2ncccc12 | 283 nM |  | 101 nM |  | 
7 | c1ccc2c(NCCCCCCCN3CCOCC3)c3c(nc2c1)CCCC3 | 44.5 nM |  | 90.5 nM |  | 
8 | Clc1ccc2c(NCCCCCCCOc3ccc(-c4cc5ccccc5o4)cc3)c3c(nc2c1)CCCC3 | 310 nM |  | 7280 nM |  | 
9 | c1ccc2c(NCCCCCCCCN3CCOCC3)c3c(nc2c1)CCCC3 | 16.5 nM |  | 42.8 nM |  | 
10 | Clc1ccc2c(NCCCCCCCNc3c4c(nc5ccccc35)-c3ccccc3C4)c3c(nc2c1)CCCC3 | 1.05 nM | 27% | 63.7 nM | 1000 nM | 1.01 nM
11 | c1ccc2c(NCCCCCCN3CCOCC3)c3c(nc2c1)CCCC3 | 68.9 nM |  | 101 nM |  | 
12 | c1ccc2c(NCCCCCCCCCCN3CCOCC3)c3c(nc2c1)CCCC3 | 28.4 nM |  | 14.7 nM |  | 
